Test system: Bromodomains BRD2, BRD3, BRD4 and BRDT (BD1/BD2 single residue mutants)
Experiment: Binding of the fluoroligand to mutated versus non-mutated bromodomain
Parameters: species or system Human
Details: single residue mutations in the acetyl lysine binding pocket
Procedure: Binding was assessed using a time resolved fluorescent resonance energy transfer binding assay. This utilises a 6 His purification tag at the N-terminal of the proteins as an epitope for an anti-6 His antibody labeled with Europium chelate (PerkinElmer AD0111) allowing binding of the Europium to the proteins which acts as the donor fluorophore. A small molecule, high affinity binder of the bromodomains BRD2, BRD3, BRD4 and BRDT has been labeled with Alexa Fluor647 (Reference Compound X) and this acts as the acceptor in the FRET pair.
The binding of the compounds of formula (I) to Bromodomains BRD2, BRD3, BRD4 and BRDT was assessed using mutated proteins to detect differential binding to either Binding Domain 1 (BD1) or Binding Domain 2 (BD2) on the bromodomain. These single residue mutations in the acetyl lysine binding pocket greatly lower the affinity of the fluoroligand (Reference Compound X) for the mutated domain (>1000 fold selective for the non-mutated domain). Therefore in the final assay conditions, binding of the fluoroligand to the mutated domain cannot be detected and subsequently the assay is suitable to determine the binding of compounds to the single non-mutated bromodomain. […]

## COc1ccc2c(c1)C(c1ccc(Cl)cc1)=N[C@@H](CC(=O)NCCCCCNC(=O)CCCCCC1(C)/C(=C/C=C/C=C/C3=[N+](CCCCS(=O)(=O)O)c4ccc(S(=O)(=O)O)cc4C3(C)C)N(CCCCS(=O)(=O)[O-])c3ccc(S(=O)(=O)O)cc31)c1nnc(C)n1-2 (stereo partly shown) [Reference Compound X]
  selectivity of the fluoroligand for the non-mutated domain over the mutated domain: > 1000 fold
